Literature values, collected in patent US7645466B2, “Methods for deriving, isolating, and/or extracting amino acid compositions from Fenugreek seed” (TSI Group Limited, priority 2004, dated 2010).

Tested on: pancreatic beta cell
Details: micromolar concentrations; direct effect on pancreatic beta cell, glucose dependent

C[C@@H]([C@H](C)O)[C@H](N)C(=O)O [4-hydroxyisoleucine]
glucose-induced insulin secretion: stimulate glucose-induced insulin secretion in micromolar concentrations
